Calls of active or inactive are those of the source. The calls are words filed in the database; no cut-off is given here.
Experiments:
Mu-type opioid receptor = Mu-type opioid receptor (Cavia porcellus, UniProt P97266); test: Inhibition of binding of [3H]DAMGO to Opioid receptor mu 1 in guinea pig membranes; assay type: cell membranes
[1] = molecular target: Kappa-type opioid receptor (Cavia porcellus) (UniProt P41144); test: Inhibition of [35S]GTP-gamma-S, binding in guines pig caudate stimulated by U69, 593 of Opioid receptor kappa 1; assay type: functional
Sequence of Kappa-type opioid receptor (Cavia porcellus) (P41144 whole entry): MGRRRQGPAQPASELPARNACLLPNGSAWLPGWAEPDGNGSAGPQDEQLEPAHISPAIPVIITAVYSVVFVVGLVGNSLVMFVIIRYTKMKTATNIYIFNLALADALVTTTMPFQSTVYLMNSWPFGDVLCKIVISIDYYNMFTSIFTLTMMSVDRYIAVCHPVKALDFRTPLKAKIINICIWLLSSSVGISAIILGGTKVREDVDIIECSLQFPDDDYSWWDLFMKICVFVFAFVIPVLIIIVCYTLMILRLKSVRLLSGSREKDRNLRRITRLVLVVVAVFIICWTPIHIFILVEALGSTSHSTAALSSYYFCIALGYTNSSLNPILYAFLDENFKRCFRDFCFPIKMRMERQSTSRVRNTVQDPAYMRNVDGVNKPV

[2] = molecular target: Mu-type opioid receptor (Cavia porcellus) (UniProt P97266); test: Inhibition of [35S]GTP-gamma-S, binding in guines pig caudate stimulated by DAMGO for Opioid receptor mu 1; assay type: functional
Sequence of Mu-type opioid receptor (Cavia porcellus) (P97266 whole entry): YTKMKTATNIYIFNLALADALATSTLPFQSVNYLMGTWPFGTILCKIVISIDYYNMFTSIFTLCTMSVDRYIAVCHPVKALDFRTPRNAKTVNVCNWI

[3] = molecular target: Sodium-dependent dopamine transporter (Rattus norvegicus, UniProt P23977); test: Inhibition of [3H]WIN-35428 binding at dopamine transporter was determined
Sequence of Sodium-dependent dopamine transporter (P23977 whole entry): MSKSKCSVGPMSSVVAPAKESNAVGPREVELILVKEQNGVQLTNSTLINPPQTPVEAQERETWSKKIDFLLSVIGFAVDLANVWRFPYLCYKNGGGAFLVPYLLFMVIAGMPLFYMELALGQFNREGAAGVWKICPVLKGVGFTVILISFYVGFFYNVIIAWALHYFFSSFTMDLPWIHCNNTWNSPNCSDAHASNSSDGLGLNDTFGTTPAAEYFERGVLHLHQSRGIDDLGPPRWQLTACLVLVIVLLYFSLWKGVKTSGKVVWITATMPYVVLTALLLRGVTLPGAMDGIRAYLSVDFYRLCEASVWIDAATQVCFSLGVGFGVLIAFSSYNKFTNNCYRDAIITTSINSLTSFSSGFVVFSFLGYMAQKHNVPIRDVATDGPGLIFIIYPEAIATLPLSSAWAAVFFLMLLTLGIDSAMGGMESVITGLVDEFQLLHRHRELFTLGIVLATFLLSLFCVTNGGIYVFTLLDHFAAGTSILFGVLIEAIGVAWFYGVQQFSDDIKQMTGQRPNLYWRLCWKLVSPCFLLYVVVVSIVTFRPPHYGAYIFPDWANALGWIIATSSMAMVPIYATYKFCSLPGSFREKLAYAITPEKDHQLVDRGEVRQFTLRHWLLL

[4] = molecular target: T1, Norepinephrine transporter (Rattus norvegicus, UniProt Q9WTR4); test: Inhibition of [3H]nisoxetine binding at norepinephrine transporter
T1 sequence (Q9WTR4 whole entry): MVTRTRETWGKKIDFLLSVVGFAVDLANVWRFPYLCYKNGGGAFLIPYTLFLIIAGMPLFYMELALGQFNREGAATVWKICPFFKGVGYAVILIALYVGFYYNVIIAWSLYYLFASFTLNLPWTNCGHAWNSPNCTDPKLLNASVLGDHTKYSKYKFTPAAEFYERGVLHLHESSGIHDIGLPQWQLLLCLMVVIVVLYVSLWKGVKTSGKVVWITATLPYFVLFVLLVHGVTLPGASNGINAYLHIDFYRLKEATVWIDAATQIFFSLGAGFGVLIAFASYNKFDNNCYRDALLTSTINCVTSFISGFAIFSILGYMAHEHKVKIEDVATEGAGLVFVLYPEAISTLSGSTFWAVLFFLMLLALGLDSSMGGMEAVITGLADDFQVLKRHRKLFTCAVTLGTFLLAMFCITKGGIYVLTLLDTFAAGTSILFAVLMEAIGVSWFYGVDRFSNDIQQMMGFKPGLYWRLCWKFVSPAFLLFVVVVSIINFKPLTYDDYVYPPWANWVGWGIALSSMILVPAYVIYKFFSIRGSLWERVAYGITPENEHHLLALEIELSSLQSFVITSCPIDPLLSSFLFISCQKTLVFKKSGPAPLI

[5] = molecular target: T1, Norepinephrine transporter; test: Affinity for norepinephrine transporter determined by [3H]nisoxetine displacement.
[6] = molecular target: Sodium-dependent serotonin transporter (Rattus norvegicus, UniProt P31652); test: Inhibition of [3H]paroxetine binding at serotonin transporter was determined
Sequence of Sodium-dependent serotonin transporter (P31652 whole entry): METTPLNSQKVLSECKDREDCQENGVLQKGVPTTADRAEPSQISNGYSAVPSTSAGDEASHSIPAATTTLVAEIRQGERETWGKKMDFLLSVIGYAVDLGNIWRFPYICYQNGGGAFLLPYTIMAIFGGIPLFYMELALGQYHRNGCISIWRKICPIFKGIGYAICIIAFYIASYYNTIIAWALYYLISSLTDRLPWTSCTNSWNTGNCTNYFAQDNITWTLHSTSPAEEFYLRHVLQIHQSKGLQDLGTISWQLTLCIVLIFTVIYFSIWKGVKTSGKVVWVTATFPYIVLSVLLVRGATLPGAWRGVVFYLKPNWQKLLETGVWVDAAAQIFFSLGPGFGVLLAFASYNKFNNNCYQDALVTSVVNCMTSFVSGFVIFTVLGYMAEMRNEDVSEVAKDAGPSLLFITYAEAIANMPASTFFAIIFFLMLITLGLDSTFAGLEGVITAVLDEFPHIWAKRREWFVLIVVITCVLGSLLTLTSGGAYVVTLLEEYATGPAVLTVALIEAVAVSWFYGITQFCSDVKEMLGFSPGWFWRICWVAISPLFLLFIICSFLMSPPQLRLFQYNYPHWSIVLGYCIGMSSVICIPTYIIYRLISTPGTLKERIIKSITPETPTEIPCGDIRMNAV

[7] = molecular target: D(1A) dopamine receptor (Rattus norvegicus) (UniProt P18901); details: Striatum
Sequence of D(1A) dopamine receptor (Rattus norvegicus) (P18901 whole entry): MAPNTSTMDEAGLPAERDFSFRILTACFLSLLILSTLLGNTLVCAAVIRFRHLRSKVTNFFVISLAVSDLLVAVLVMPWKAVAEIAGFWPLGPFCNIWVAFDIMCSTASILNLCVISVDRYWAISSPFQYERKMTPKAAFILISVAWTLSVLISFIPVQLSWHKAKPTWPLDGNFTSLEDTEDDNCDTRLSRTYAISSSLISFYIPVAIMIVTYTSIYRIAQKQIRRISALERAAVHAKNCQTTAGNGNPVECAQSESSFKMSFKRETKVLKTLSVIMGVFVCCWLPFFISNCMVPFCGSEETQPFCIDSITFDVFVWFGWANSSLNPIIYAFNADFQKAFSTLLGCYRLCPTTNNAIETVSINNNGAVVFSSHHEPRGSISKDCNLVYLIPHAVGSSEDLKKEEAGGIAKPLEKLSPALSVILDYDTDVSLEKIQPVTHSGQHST

[8] = molecular target: D(1A) dopamine receptor (Rattus norvegicus) (UniProt P18901); details: Striatum; remark: listed apart in the source
[9] = molecular target: Delta-type opioid receptor (Homo sapiens) (UniProt P41143); details: Cavia porcellus
Sequence of Delta-type opioid receptor (Homo sapiens) (P41143 whole entry): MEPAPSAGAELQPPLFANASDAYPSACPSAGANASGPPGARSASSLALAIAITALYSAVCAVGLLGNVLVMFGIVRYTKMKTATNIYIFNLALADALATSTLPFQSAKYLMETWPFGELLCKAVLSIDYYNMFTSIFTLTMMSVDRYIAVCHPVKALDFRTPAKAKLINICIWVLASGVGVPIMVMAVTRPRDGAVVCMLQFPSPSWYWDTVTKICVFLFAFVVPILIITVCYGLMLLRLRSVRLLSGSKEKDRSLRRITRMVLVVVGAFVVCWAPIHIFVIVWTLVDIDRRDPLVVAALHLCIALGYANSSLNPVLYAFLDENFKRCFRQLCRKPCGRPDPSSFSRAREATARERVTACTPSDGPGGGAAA
Description: Inhibition of [35S]GTP-gamma-S, binding in guines pig caudate stimulated by SNC-80 to Opioid receptor delta 1

Rattus norvegicus [10] = test: Time taken to produce maximal locomotor activity at 30 min period in rat by intraperitoneal administration; assay type: functional
Rattus norvegicus [11] = test: Effective dose of compound required to produce maximal locomotor activity in rat by intraperitoneal administration; assay type: functional; details: ip
Rattus norvegicus [12] = test: Time during which activity returned to baseline level in rat by intraperitoneal administration; assay type: functional
Rattus norvegicus [13] = test: Maximal locomotor activity of compound compared as a percent of cocaine's effect in rat by intraperitoneal administration; assay type: functional
Rattus norvegicus [14] = test: Effective dose of compound required to produce maximal locomotor activity in cocaine-trained rat by intraperitoneal administration; assay type: functional; details: ip
Rattus norvegicus [15] = test: Maximal locomotor activity of compound compared as a percent of cocaine's effect in rat by oral administration; assay type: functional
Rattus norvegicus [16] = test: Time during which activity returned to baseline level in rat by oral administration; assay type: functional
Rattus norvegicus [17] = test: Time taken to produce maximal locomotor activity at 30 min period in rat by oral administration; assay type: functional
Rattus norvegicus [18] = test: Effective dose of compound required to produce maximal locomotor activity in rat by oral administration; assay type: functional
Rattus norvegicus [19] = test: Effective dose of compound required to produce maximal locomotor activity in cocaine-trained rat by oral administration; assay type: functional
Mus musculus [20] = organism: Mus musculus; test: Antagonistic activity of nicotine-induced analgesia in mice was determined; assay type: functional
Mus musculus [21] = organism: Mus musculus; test: Antagonistic activity of nicotine-induced hypothermia in mice was determined; assay type: functional
[22] = molecular target: Kappa-type opioid receptor (Cavia porcellus) (UniProt P41144)
Description: Inhibition of [35S]GTP-gamma-S, binding in cloned Opioid receptor kappa 1 stimulated by U50,488

[23] = molecular target: Mu-type opioid receptor (Cavia porcellus) (UniProt P97266)
Description: Inhibition of [35S]GTP-gamma-S, binding in cloned Opioid receptor mu 1 stimulated by DAMGO

[24] = molecular target: Delta-type opioid receptor (Homo sapiens) (UniProt P41143); details: Cavia porcellus; remark: listed apart in the source
Description: Inhibition of [35S]GTP-gamma-S, binding in cloned Opioid receptor delta 1 stimulated by SNC-80

[25] = molecular target: D(2) dopamine receptor (Rattus norvegicus) (UniProt P61169)
Sequence of D(2) dopamine receptor (Rattus norvegicus) (P61169 whole entry): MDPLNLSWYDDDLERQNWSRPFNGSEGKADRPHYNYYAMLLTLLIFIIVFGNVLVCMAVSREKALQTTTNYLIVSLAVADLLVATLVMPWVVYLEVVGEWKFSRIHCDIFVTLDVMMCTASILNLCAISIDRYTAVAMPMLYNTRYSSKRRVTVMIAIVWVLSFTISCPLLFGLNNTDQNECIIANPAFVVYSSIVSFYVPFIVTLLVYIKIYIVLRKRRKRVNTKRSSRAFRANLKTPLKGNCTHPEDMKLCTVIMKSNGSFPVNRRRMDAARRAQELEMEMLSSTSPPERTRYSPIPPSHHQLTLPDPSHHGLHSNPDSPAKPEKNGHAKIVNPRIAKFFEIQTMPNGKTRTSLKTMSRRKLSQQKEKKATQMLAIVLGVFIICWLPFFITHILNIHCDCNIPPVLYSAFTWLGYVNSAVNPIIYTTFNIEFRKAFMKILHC

[26] = molecular target: D(2) dopamine receptor (Rattus norvegicus) (UniProt P61169); details: Nucleus accumbens
[27] = molecular target: Kappa-type opioid receptor (Cavia porcellus) (UniProt P41144); remark: listed apart in the source
Description: Inhibition of [35S]GTP-gamma-S, binding in cloned Opioid receptor kappa 1 stimulated by U69, 593

[28] = molecular target: Kappa-type opioid receptor (Cavia porcellus) (UniProt P41144); remark: listed apart in the source
Description: Inhibition of [35S]GTP-gamma-S, binding in guines pig caudate stimulated by U50, 488 of Opioid receptor kappa 1

Sequence of Mu-type opioid receptor (P97266 whole entry): as the sequence (P97266 whole entry) above

SMILES	IC50 [3] [nM]	IC50 [4] [nM]	Ki [5] [nM]	IC50 [6] [nM]	Ki [6] [nM]	further results
C[C@H]1CN(C/C=C/c2ccccc2Cl)CC[C@@]1(C)c1cccc(O)c1						Ki (Mu-type opioid receptor): 1.12 nM; Ke [1]: 0.567 nM; Ke [2]: 0.026 nM
CN1C2CC[C@@H]1C[C@H](c1ccc(Cl)cc1)C2C(=O)OCCc1ccc(N)cc1 (stereo partly drawn)	2.16					
CN(C)C(=O)C1C2CC[C@H](C[C@@H]1c1ccc(Cl)cc1)N2C (stereo partly drawn)	1.38	940	566	1080	98	
COC(=O)C1C2CC[C@H](C[C@H]1c1ccc(Br)cc1)N2C (stereo partly drawn)				10.6	0.96	
COC(=O)C1C2CC[C@H](C[C@@H]1c1ccc(C)c(F)c1)N2 (stereo partly drawn)	9	0.86	0.43	97.4	23.8	
CCc1ccc([C@H]2C[C@H]3CCC(N3)C2C(=O)OC)cc1 (stereo partly drawn)	50	122	74	8.1	0.74	
Oc1cc2c(cc1O)C(c1ccccc1)CNCC2 (stereo not drawn)						NC [7]: inactive; NC [8]: inactive
CC(C)[C@@H](CN1CC[C@@](C)(c2cccc(O)c2)[C@@H](C)C1)NC(=O)CCc1ccc(O)cc1						Ke [1]: 4.7 nM; Ke [2]: 7.25 nM
C[C@H]1CN(CC[C@H](O)C2CCCCC2)CC[C@@]1(C)c1cccc(O)c1						Ki (Mu-type opioid receptor): 0.32 nM; Ke [1]: 0.33 nM; Ke [9]: 0.312 nM; Ke [2]: 0.021 nM
COC(=O)[C@@H]1C2CC[C@H](C[C@@H]1c1ccccc1)N2C.Cl			554			Peak time (Rattus norvegicus [10]): 10 min; ED50 (Rattus norvegicus [11]): 2.1 mg/kg; Time (Rattus norvegicus [12]): 2 h; Maximal locomotor activity (% of cocaine) (Rattus norvegicus [13]): 146%; ED50 (Rattus norvegicus [14]): 0.35 mg/kg
COC(=O)C1C2CC[C@H](C[C@@H]1c1ccc(I)cc1)N2C (stereo partly drawn)			21.6		0.38	
CN1C2CCC1C(C(=O)Oc1ccccc1)C(c1ccc(Cl)cc1)C2 (stereo not drawn)			1780		214	Peak time (Rattus norvegicus [10]): 30 min; ED50 (Rattus norvegicus [11]): 0.93 mg/kg; Time (Rattus norvegicus [12]): >4 h; Maximal locomotor activity (% of cocaine) (Rattus norvegicus [13]): 128%; ED50 (Rattus norvegicus [14]): 2.28 mg/kg
COC(=O)C1C2CC[C@H](C[C@@H]1c1cccc(I)c1)N2 (stereo partly drawn)	26	1600	964	39	3.6	
Cc1ccccc1/C=C/CN1CC[C@@](C)(c2cccc(O)c2)[C@@H](C)C1						Ki (Mu-type opioid receptor): 0.86 nM; Ke [1]: 0.17 nM; Ke [2]: 0.013 nM
CCc1ccc([C@H]2C[C@H]3CCC(N3)C2C(=O)OC)cc1I (stereo partly drawn)	329	148	89	0.69	0.063	
CC1C2CCCC1(c1cccc(O)c1)CCN2C (stereo not drawn)						Ke [1]: 105 nM; Ke [2]: 21.2 nM
COC(=O)C1C2CC[C@H](C[C@@H]1c1ccc(Cl)cc1)N2C (stereo partly drawn)					4.1	

SMILES	IC50 [3] [nM]	IC50 [4] [nM]	Ki [5] [nM]	IC50 [6] [nM]	Ki [6] [nM]	further results
C=C(C)c1ccc([C@H]2C[C@H]3CCC(N3)C2C(=O)OC)cc1 (stereo partly drawn)	23	144	87	0.6	0.055	
CN1C2CC[C@@H]1C[C@H](c1ccc(Cl)cc1)C2C(=O)N1CCCC1 (stereo partly drawn)	1.38	3940	2370	12400	1130	
Cc1ccc([C@H]2C[C@H]3CCC(C2C(=O)OC(C)C)N3C)cc1 (stereo partly drawn)	6.45	1930	1160	6090	554	Cocaine (Rattus norvegicus [15]): 116%; Peak time (Rattus norvegicus [10]): 10 min; Time (Rattus norvegicus [16]): >4 h; Peak time (Rattus norvegicus [17]): 100 min; ED50 (Rattus norvegicus [11]): 3.1 mg/kg; Time (Rattus norvegicus [12]): >4 h; Maximal locomotor activity (% of cocaine) (Rattus norvegicus [13]): 103%; ED50 (Rattus norvegicus [14]): 4.4 mg/kg; ED50 (Rattus norvegicus [18]): 4.7 mg/kg; ED50 (Rattus norvegicus [19]): 5.7 mg/kg
C[C@H]1CN(C/C=C/c2ccccc2)CC[C@@]1(C)c1cccc(O)c1						Ki (Mu-type opioid receptor): 0.74 nM; Ke [1]: 1.04 nM; Ke [2]: 0.039 nM
CC(NC(C)(C)C)C(=O)c1cccc(Cl)c1 (stereo not drawn) [BUPROPION]						AD50 (Mus musculus [20]): 9 mM/kg; AD50 (Mus musculus [21]): 16 mM/kg
COC(=O)C1C2CC[C@H](C[C@@H]1c1ccc(C)cc1)N2 (stereo partly drawn)	33.6	9	5.4	500	46	
CN1[C@H]2CC[C@@H]1[C@@H](C(=O)N1CCCC1)[C@@H](c1ccc(I)cc1)C2			596		157	
Cc1ccc(-c2cc(C3C4CC[C@H](C[C@@H]3c3ccc(Cl)cc3)N4C)on2)cc1 (stereo partly drawn)	4.09	1710	1030	5740	522	Cocaine (Rattus norvegicus [15]): 77%; Peak time (Rattus norvegicus [10]): 70 min; Time (Rattus norvegicus [16]): >4 h; Peak time (Rattus norvegicus [17]): 60 min; ED50 (Rattus norvegicus [11]): 4.8 mg/kg; Time (Rattus norvegicus [12]): >4 h; Maximal locomotor activity (% of cocaine) (Rattus norvegicus [13]): 71%; ED50 (Rattus norvegicus [14]): 5.6 mg/kg; ED50 (Rattus norvegicus [18]): 14.4 mg/kg; ED50 (Rattus norvegicus [19]): 3.54 mg/kg
CN1CCc2cc(Cl)c(O)cc2[C@@H](c2ccccc2)C1						NC [7]: inactive; NC [8]: inactive
CC(C)[C@@H](CN1CC[C@@](C)(c2cccc(O)c2)[C@@H](C)C1)NC(=O)[C@H]1Cc2ccc(O)cc2CN1						Ke [22]: 6 pM; Ke [23]: 3.42 nM; Ke [24]: > 100 nM
CCc1cc(Cl)c(OC)c(C(=O)NC[C@@H]2CCCN2CC)c1O						NC [25]: inactive; NC [26]: inactive
C[C@H]1C2CCCC1(c1cccc(O)c1)CCN2CCc1ccccc1 (stereo partly drawn)						Ke [1]: 1.34 nM; Ke [2]: 0.338 nM
Cc1ccc([C@H]2C[C@H]3CCC(C2c2ccccc2)N3C)cc1 (stereo partly drawn)	1.96	480	289	11000	1000	
COC(=O)C1C2CC[C@H](C[C@H]1c1ccc(Cl)c(Cl)c1)N2C (stereo partly drawn)		18	10.8	3.13	0.28	
CN1C2CC[C@@H]1C[C@H](c1ccc(Cl)cc1)C2c1cc(-c2ccccc2)no1 (stereo partly drawn)			304		220	
CC1CN(C)C2CCCC1(c1cccc(O)c1)C2 (stereo not drawn)						Ke [1]: 76.4 nM; Ke [2]: 25.2 nM
Oc1ccc2c3c1O[C@H]1c4[nH]c5c(c4C[C@@]4(O)[C@@H](C2)N(CC2CC2)CC[C@]314)C[C@@]1(O)[C@H]2Cc3ccc(O)c4c3[C@@]1(CCN2CC1CC1)[C@H]5O4						Ke [27]: 0.07 nM; Ke [28]: 0.038 nM; Ke [23]: 15.8 nM; Ke [2]: 16.8 nM
